Measurements taken from patent publication US20090227673A1, “Method and Composition for the Treatment of Parkinson's Disease” (priority 2006, published 2009).
Like-named read-outs stand apart in the source and are kept apart here.

Target: T1, human COMT (Homo sapiens, UniProt P21964)
T1 construct: from tissue; host or cells: human liver cytosol (preparations HL4C, HL9C, HL8C)
T1 sequence (P21964 1-221 isoform P21964-2): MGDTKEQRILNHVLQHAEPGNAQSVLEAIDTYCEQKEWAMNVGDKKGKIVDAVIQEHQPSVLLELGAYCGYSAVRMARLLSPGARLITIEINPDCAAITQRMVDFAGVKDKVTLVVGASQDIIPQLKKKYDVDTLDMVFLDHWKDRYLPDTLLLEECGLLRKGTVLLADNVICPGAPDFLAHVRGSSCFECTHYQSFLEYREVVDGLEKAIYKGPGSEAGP
Assay: Inhibition of human liver COMT-mediated o-methylation of catecholamines (human liver cytosol, [3H-methyl]AdoMet)
Assay type: biochemical

[1] = 10 μM catecholamine substrate, 250 μM AdoMet, 0.25 mg/mL human liver cytosolic protein, 37° C., 10 min, pH 7.4

SMILES | IC50 [1] [nM] | IC50 [nM]
O=C(/C=C/c1ccc(O)c(O)c1)OCCc1ccccc1 [caffeic acid pheethyl ester, caffeic acid phenethyl ester] | – | 500 to 1000
O=c1c(O)c(-c2ccc(O)c(O)c2)oc2cc(O)cc(O)c12 [quercetin] | ~331 | –

Continued, in another order:

IC50 [1] [nM] | SMILES | IC50 [nM]
500 to 1000 | O=C(O)/C=C/c1ccc(O)c(O)c1 [caffeic acid] | –
500 to 1000 | O=C(/C=C/c1ccc(O)c(O)c1)O[C@@H]1C[C@](O)(C(=O)O)C[C@@H](O)[C@H]1O [chlorogenic acid] | –
500 to 1000 | Oc1cc(O)c2c(c1)O[C@H](c1ccc(O)c(O)c1)[C@H](O)C2 [epicatechin] | –
